Literature values in patent publication US5118493A, “Composition having reduced nephrotoxocity comprising a fatty acid containing component and cyclosporine” (Brigham and Women's Hospital, priority 1991, dated 1992).

System: rats treated with CSA

Cc1c(Cn2ccnc2)c2ccccc2n1CCC(=O)O [UK-38,485]
glomerular filtration rate (GFR): improved | urinary TxB2 levels: comparable to control levels
